Results taken from publication PMC11289882, “Site-directed allostery perturbation to probe the negative regulation of hypoxia inducible factor-1α” (RSC Chemical Biology, 2024).
Where two headings read alike, the source gives them in different places. Non-standard residues stand in square brackets, D forms with d. Residues, ends and D or L forms follow the SMILES beside them. β3hE = N[C@@H](CCC(=O)O)CC(=O)O; β3hQ = NC(=O)CC[C@H](N)CC(=O)O; β3hL = CC(C)C[C@H](N)CC(=O)O; β3hD = NC(CC(=O)O)CC(=O)O; β3hS = N[C@@H](CO)CC(=O)O

Experiments:
p300–Flu-HIF-1α = molecular target: T1, p300–Flu-HIF-1α (Homo sapiens, UniProt Q09472); assay: Fluorescence anisotropy competition against p300–Flu-HIF-1α; assay type: binding
T1 construct: from residues 330-420 (used for FA and ITC experiments); GST (N, cleaved yes); made in house; host or cells: p300: E. coli BL21 pLysS (pGEX-4T-1); tracer peptide: solid-phase synthesis

[1] = molecular target: T2, p300_330–420 (TAZ1 domain) (Homo sapiens, UniProt Q09472); assay: ITC direct titration to p300; assay type: binding; conditions: 35 °C
T2 construct: from residues 330-420 (used for FA and ITC experiments); GST (N, cleaved yes); made in house; host or cells: E. coli BL21 pLysS (pGEX-4T-1)

[2] = 50 nM p300_330–420, 25 nM Flu-HIF-1α786–826 tracer, 40 mM Na-phosphate, 100 mM NaCl, 1 mM DTT, 0.01% Triton-X, pH 7.4, 10 min at 35 °C, fixed KD = 64 nM for tracer, three repeats, read-out: Kd,app FA competition against p300–Flu-HIF-1α
[3] = 5 µM p300_330–420 in cell, 60 µM ligand in syringe, 40 mM Na-phosphate pH 7.5, 100 mM NaCl, 1 mM DTT, global fit with ternary intermediate model, 68% confidence intervals in brackets, read-out: Direct binding to p300, K d

T1 sequence (Q09472 330-420): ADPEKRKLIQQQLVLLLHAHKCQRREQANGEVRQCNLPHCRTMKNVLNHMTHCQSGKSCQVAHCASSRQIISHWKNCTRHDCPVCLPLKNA
T2 sequence (Q09472 330-420): as above

| Compound | Kd (p300–Flu-HIF-1α; [2]) [nM] | Kd [1, 3] [nM] | Kd (p300–Flu-HIF-1α; as other FA competition values, average and standard deviation of two individual titrations (Fig. 2 and Fig. S11), SD, read-out: Kd,app FA competition against p300–Flu-HIF-1α) [nM] | Kd (p300–Flu-HIF-1α; determined by FA competition with HIF-1α776–826 as competitor (competitor KD 50 ± 8 nM from ITC), 50 nM p300, 25 nM tracer, 35 °C, read-out: KD of the fluorescent tracer for p300) [nM] | Kd ([1]; 5 µM protein in cell, 60 µM peptide in syringe, 40 mM Na-phosphate, 100 mM NaCl, 1 mM DTT pH 7.4, average of three independent measurements, read-out: KD of HIF-1α776-826 binding to p300) [nM] |
| --- | --- | --- | --- | --- | --- |
| CC[C@H](C)[C@H](NC(C)=O)C(=O)N[C@@H](CC(=O)O)C(=O)N[C@H](C(=O)N[C@@H](CC(=O)O)C(=O)N[C@@H](Cc1ccccc1)C(=O)N[C@H](C(=O)N[C@@H](CC(=O)O)C(=O)N[C@@H](CCC(=O)O)C(=O)N[C@@H](CCC(=O)O)CC(=O)N[C@H](C(=O)N[C@@H](CC(C)C)C(=O)N[C@@H](CCSC)C(=O)N[C@@H](CO)CC(=O)N[C@@H](CC(C)C)C(=O)N[C@H](C(=O)N[C@H](C(=O)N[C@@H](CCC(=O)O)CC(=O)N[C@@H](CCSC)C(=O)NCC(=O)N[C@@H](CC(C)C)C(=O)N[C@@H](CC(=O)O)C(=O)N[C@@H](CCCNC(=N)N)C(=O)N[C@H](C(=O)N[C@@H](CCCCN)C(=O)N[C@@H](CCC(=O)O)C(=O)N[C@@H](CC(C)C)C(=O)N1CCC[C@H]1C(=O)N[C@@H](CCC(=O)O)C(=O)N[C@@H](CC(C)C)C(=O)N[C@@H](Cc1c[nH]c2ccccc12)C(=O)N[C@@H](CC(C)C)C(=O)NCC(=O)N[C@@H](CCC(N)=O)C(=O)N[C@@H](CC(N)=O)C(=O)N[C@@H](CCC(=O)O)C(=O)N[C@@H](Cc1ccccc1)C(=O)N[C@@H](CC(=O)O)C(=O)N[C@@H](Cc1ccccc1)C(=O)N[C@@H](CCSC)C(N)=O)[C@@H](C)CC)[C@@H](C)CC)C(C)C)C(C)C)[C@@H](C)CC)[C@@H](C)O [compound 2] (Ac-IDTDFIDE[β3hE]VLM[β3hS]LVI[β3hE]MGLDRIKELPELWLGQNEFDFM-NH2) | 4.9 ± 0.8 | 16 | – | – | – |
| Ac-IDTDFIDEEVLMSLVIEMGLDRIKELPELWLGQNEFDFM-NH2 [CITED2_218–256] | – | 11 | 2 ± 0.9 | – | – |
| CC[C@H](C)[C@H](NC(C)=O)C(=O)N[C@@H](CC(=O)O)C(=O)N[C@H](C(=O)N[C@@H](CC(=O)O)C(=O)N[C@@H](Cc1ccccc1)C(=O)N[C@H](C(=O)N[C@@H](CC(=O)O)C(=O)N[C@@H](CCC(=O)O)C(=O)N[C@@H](CCC(=O)O)C(=O)N[C@H](C(=O)N[C@@H](CC(C)C)C(=O)N[C@@H](CCSC)C(=O)N[C@@H](CO)C(=O)N[C@@H](CC(C)C)C(=O)N[C@H](C(=O)N[C@H](C(=O)N[C@@H](CCC(=O)O)C(=O)N[C@@H](CCSC)C(=O)NCC(=O)N[C@@H](CC(C)C)C(=O)N[C@@H](CC(=O)O)C(=O)N[C@@H](CCCNC(=N)N)C(=O)N[C@H](C(=O)N[C@@H](CCCCN)C(=O)N[C@@H](CCC(=O)O)C(=O)N[C@@H](CC(C)C)C(=O)N1CCC[C@H]1C(=O)N[C@@H](CCC(=O)O)C(=O)N[C@@H](CC(C)C)C(=O)N[C@@H](Cc1c[nH]c2ccccc12)C(=O)N[C@@H](CC(C)C)C(=O)NCC(=O)N[C@@H](CCC(N)=O)CC(=O)N[C@@H](CC(N)=O)C(=O)N[C@@H](CCC(=O)O)CC(=O)N[C@@H](Cc1ccccc1)C(=O)N[C@@H](CC(=O)O)CC(=O)N[C@@H](Cc1ccccc1)C(=O)N[C@@H](CCSC)C(N)=O)[C@@H](C)CC)[C@@H](C)CC)C(C)C)C(C)C)[C@@H](C)CC)[C@@H](C)O [compound 4] (Ac-IDTDFIDEEVLMSLVIEMGLDRIKELPELWLG[β3hQ]N[β3hE]F[β3hD]FM-NH2) | 1.7 ± 0.7 | 17 | – | – | – |
| Ac-DEEVLMSLVIEMGLDRIKELPELWLGQNEFDFM-NH2 [CITED2ΔN] | 86 ± 5 | 51 | – | – | – |
| CC[C@H](C)[C@H](NC(=O)[C@@H]1CCCN1C(=O)[C@H](C)NC(=O)[C@H](CC(N)=O)NC(=O)[C@@H](NC(=O)[C@H](CCC(=O)O)NC(=O)[C@H](CS)NC(=O)[C@H](CC(=O)O)NC(=O)[C@H](Cc1ccc(O)cc1)NC(=O)[C@H](CO)NC(=O)[C@@H](NC(=O)[C@H](CC(C)C)NC(=O)[C@H](CCC(N)=O)NC(=O)[C@@H]1CCCN1C(=O)[C@H](CC(C)C)NC(=O)CNC(=O)[C@H](CO)NC(=O)[C@H](CCC(=O)O)NC(=O)[C@H](CC(=O)O)NC(=O)[C@H](CCSC)NC(=O)[C@H](CO)NC(=O)CCCCCNC(=O)c1ccc2c(c1)C(=O)OC21c2ccc(O)cc2Oc2cc(O)ccc21)[C@@H](C)O)C(C)C)C(=O)N[C@@H](CCC(N)=O)C(=O)NCC(=O)N[C@@H](CO)C(=O)N[C@@H](CCCNC(=N)N)C(=O)N[C@@H](CC(N)=O)C(=O)N[C@@H](CC(C)C)C(=O)N[C@@H](CC(C)C)C(=O)N[C@@H](CCC(N)=O)C(=O)NCC(=O)N[C@@H](CCC(=O)O)C(=O)N[C@@H](CCC(=O)O)C(=O)N[C@@H](CC(C)C)C(=O)N[C@@H](CC(C)C)C(=O)N[C@@H](CCCNC(=N)N)C(=O)N[C@@H](C)C(=O)N[C@@H](CC(C)C)C(=O)N[C@@H](CC(=O)O)C(=O)N[C@@H](CCC(N)=O)C(=O)N[C@H](C(=O)N[C@@H](CC(N)=O)C(N)=O)C(C)C [Flu-HIF-1α] | – | – | – | 64 | – |
| CC[C@H](C)[C@H](NC(C)=O)C(=O)N[C@@H](CC(=O)O)C(=O)N[C@H](C(=O)N[C@@H](CC(=O)O)C(=O)N[C@@H](Cc1ccccc1)C(=O)N[C@H](C(=O)N[C@@H](CC(=O)O)C(=O)N[C@@H](CCC(=O)O)C(=O)N[C@@H](CCC(=O)O)C(=O)N[C@H](C(=O)N[C@@H](CC(C)C)C(=O)N[C@@H](CCSC)C(=O)N[C@@H](CO)C(=O)N[C@@H](CC(C)C)C(=O)N[C@H](C(=O)N[C@H](C(=O)N[C@@H](CCC(=O)O)C(=O)N[C@@H](CCSC)C(=O)NCC(=O)N[C@@H](CC(C)C)C(=O)N[C@@H](CC(=O)O)CC(=O)N[C@@H](CCCNC(=N)N)C(=O)N[C@H](C(=O)N[C@@H](CCC(=O)O)CC(=O)N[C@@H](CC(C)C)C(=O)N1CCC[C@H]1C(=O)N[C@@H](CCC(=O)O)C(=O)N[C@@H](CC(C)C)C(=O)N[C@@H](Cc1c[nH]c2ccccc12)C(=O)N[C@H](CC(=O)NCC(=O)N[C@@H](CCC(N)=O)C(=O)N[C@@H](CC(N)=O)C(=O)N[C@@H](CCC(=O)O)C(=O)N[C@@H](Cc1ccccc1)C(=O)N[C@@H](CC(=O)O)C(=O)N[C@@H](Cc1ccccc1)C(=O)N[C@@H](CCSC)C(N)=O)CC(C)C)[C@@H](C)CC)[C@@H](C)CC)C(C)C)C(C)C)[C@@H](C)CC)[C@@H](C)O [3b] (Ac-IDTDFIDEEVLMSLVIEMGL[β3hD]RI[β3hE]LPELW[β3hL]GQNEFDFM-NH2) | 112 ± 13 | 98 | – | – | – |
| CC[C@H](C)[C@H](NC(C)=O)C(=O)N[C@@H](CC(=O)O)C(=O)N[C@H](C(=O)N[C@@H](CC(=O)O)C(=O)N[C@@H](Cc1ccccc1)C(=O)N[C@H](C(=O)N[C@@H](CC(=O)O)C(=O)N[C@@H](CCC(=O)O)C(=O)N[C@@H](CCC(=O)O)C(=O)N[C@H](C(=O)N[C@@H](CC(C)C)C(=O)N[C@@H](CCSC)C(=O)N[C@@H](CO)C(=O)N[C@@H](CC(C)C)C(=O)N[C@H](C(=O)N[C@H](C(=O)N[C@@H](CCC(=O)O)C(=O)N[C@@H](CCSC)C(=O)NCC(=O)N[C@@H](CC(C)C)C(=O)N[C@@H](CC(=O)O)CC(=O)N[C@H](C(=O)N[C@@H](CCC(=O)O)CC(=O)N[C@@H](CC(C)C)C(=O)N1CCC[C@H]1C(=O)N[C@@H](CCC(=O)O)C(=O)N[C@@H](CC(C)C)C(=O)N[C@@H](Cc1c[nH]c2ccccc12)C(=O)N[C@@H](CC(C)C)C(=O)NCC(=O)N[C@@H](CCC(N)=O)C(=O)N[C@@H](CC(N)=O)C(=O)N[C@@H](CCC(=O)O)C(=O)N[C@@H](Cc1ccccc1)C(=O)N[C@@H](CC(=O)O)C(=O)N[C@@H](Cc1ccccc1)C(=O)N[C@@H](CCSC)C(N)=O)[C@@H](C)CC)[C@@H](C)CC)C(C)C)C(C)C)[C@@H](C)CC)[C@@H](C)O [3c] (Ac-IDTDFIDEEVLMSLVIEMGL[β3hD]I[β3hE]LPELWLGQNEFDFM-NH2) | 76 ± 6 | 29 | – | – | – |
| CC[C@H](C)[C@H](NC(=O)[C@@H]1CCCN1C(=O)[C@H](C)NC(=O)[C@H](CC(N)=O)NC(=O)[C@@H](NC(=O)[C@H](CCC(=O)O)NC(=O)[C@H](CS)NC(=O)[C@H](CC(=O)O)NC(=O)[C@H](Cc1ccc(O)cc1)NC(=O)[C@H](CO)NC(=O)[C@@H](NC(=O)[C@H](CC(C)C)NC(=O)[C@H](CCC(N)=O)NC(=O)[C@@H]1CCCN1C(=O)[C@H](CC(C)C)NC(=O)CNC(=O)[C@H](CO)NC(=O)[C@H](CCC(=O)O)NC(=O)[C@H](CC(=O)O)NC(=O)[C@H](CCSC)NC(=O)[C@H](CO)NC(=O)[C@H](CCC(N)=O)NC(=O)CNC(=O)[C@H](CC(C)C)NC(=O)[C@H](CC(C)C)NC(=O)[C@H](CCCNC(=N)N)NC(=O)[C@H](CS)NC(=O)[C@H](C)NC(=O)[C@H](CC(C)C)NC(=O)[C@H](CC(=O)O)NC(=O)[C@H](CO)NC(C)=O)[C@@H](C)O)C(C)C)C(=O)N[C@@H](CCC(N)=O)C(=O)NCC(=O)N[C@@H](CO)C(=O)N[C@@H](CCCNC(=N)N)C(=O)N[C@@H](CC(N)=O)C(=O)N[C@@H](CC(C)C)C(=O)N[C@@H](CC(C)C)C(=O)N[C@@H](CCC(N)=O)C(=O)NCC(=O)N[C@@H](CCC(=O)O)C(=O)N[C@@H](CCC(=O)O)C(=O)N[C@@H](CC(C)C)C(=O)N[C@@H](CC(C)C)C(=O)N[C@@H](CCCNC(=N)N)C(=O)N[C@@H](C)C(=O)N[C@@H](CC(C)C)C(=O)N[C@@H](CC(=O)O)C(=O)N[C@@H](CCC(N)=O)C(=O)N[C@H](C(=O)N[C@@H](CC(N)=O)C(N)=O)C(C)C [HIF-1α776–826] | 57 ± 4 | – | – | – | 50 ± 8 |
